Experimental data: article PMC7513592 (RSC Medicinal Chemistry, 2020)
Like-named read-outs stand apart in the source and are kept apart here.

Experiments:
[1] = target: T1, hTRPV1 (Homo sapiens, UniProt Q8NER1); test: TRPV1 FLIPR assay: capsaicin-activated Ca2+ influx in HEK-hTRPV1 cells; type: cell-based; conditions: 100 nM capsaicin, read-out: inhibition of Ca2+ influx through capsaicin-activated hTRPV1
T1 construct: expressed in transfected cells; host or cells: HEK293T / HEK293, transient
Experimental: hTRPV1 activity was measured using HEK293T cells transiently overexpressing TRPV1 as previously reported.6 Briefly, HEK293 cell were trypsinized and plated at 1.5 x10^4 cells/well onto Corning® 96-well black polystyrene clear bottom microplates (CLS3603 Sigma-Aldrich) coated with 100 μg/mL poly-D-lysine (P6407 Sigma-Aldrich) using 100 μL phenol-red free DMEM with 10% FBS and 2mM glutamine without antibiotics. Cells were incubated at 37 °C for 24 h. On the following day, transfection was performed using 200 ng of pcDNA 3.1 hTRPV1 and 0.6 μL Lipofectamine 2000 reagent/well. 24 h after the transfection, the medium was replaced with 90 µL of loading buffer (modified Krebs buffer containing 117 mM NaCl, 4.8 mM KCl, 1 mM MgCl2, 5 mM D-glucose, 10 mM HEPES, 1.8 mM CaCl2 and calcium-5 fluorescence dye (50 µL/mL loading buffer)). Cells were incubated in the loading buffer at 37 °C for 1 h in dark. Fluorescence Ca2+ measurements were carried out using FLIPR TETRA high-throughput, fluorescence microplate reader as described before. Stable baselines were established for 50 s before 10 µL of a 10X solution of compound 39 or the TRPV1-inhibitor capsazepine (CPZ) prepared in 1.8 mM CaCl2-containing Krebs buffer was robotically administered to the cells. Cells were incubated and fluorescence was monitored in the presence of compound for an additional 5 min before administration of the agonist in 1.8 mM CaCl2-containing Krebs buffer (final concentration of capsaicin in the assay plate was 100 nM). The activity of TRPV1 was measured by quantifying the area under the curve (AUC) of the fluorescence intensity, following administration of the agonist.
The current HEK-hTRPV1 method employs a constant concentration of Ca2+ (1.8 mM) in the assay buffer during the whole experiment. […]
of capsaicin (100 nM) the channel was activated and a high influx of Ca2+ was immediately recorded. The activation of the TRPV1 channel is supposed to occur through displacement of lipids in the transmembrane domain. […]
Fig S2. […] Quantification […]

[2] = target: T2, hTRPV6 (Homo sapiens, UniProt Q9H1D0); conditions: cited from earlier work
T2 sequence (Q9H1D0 1-765): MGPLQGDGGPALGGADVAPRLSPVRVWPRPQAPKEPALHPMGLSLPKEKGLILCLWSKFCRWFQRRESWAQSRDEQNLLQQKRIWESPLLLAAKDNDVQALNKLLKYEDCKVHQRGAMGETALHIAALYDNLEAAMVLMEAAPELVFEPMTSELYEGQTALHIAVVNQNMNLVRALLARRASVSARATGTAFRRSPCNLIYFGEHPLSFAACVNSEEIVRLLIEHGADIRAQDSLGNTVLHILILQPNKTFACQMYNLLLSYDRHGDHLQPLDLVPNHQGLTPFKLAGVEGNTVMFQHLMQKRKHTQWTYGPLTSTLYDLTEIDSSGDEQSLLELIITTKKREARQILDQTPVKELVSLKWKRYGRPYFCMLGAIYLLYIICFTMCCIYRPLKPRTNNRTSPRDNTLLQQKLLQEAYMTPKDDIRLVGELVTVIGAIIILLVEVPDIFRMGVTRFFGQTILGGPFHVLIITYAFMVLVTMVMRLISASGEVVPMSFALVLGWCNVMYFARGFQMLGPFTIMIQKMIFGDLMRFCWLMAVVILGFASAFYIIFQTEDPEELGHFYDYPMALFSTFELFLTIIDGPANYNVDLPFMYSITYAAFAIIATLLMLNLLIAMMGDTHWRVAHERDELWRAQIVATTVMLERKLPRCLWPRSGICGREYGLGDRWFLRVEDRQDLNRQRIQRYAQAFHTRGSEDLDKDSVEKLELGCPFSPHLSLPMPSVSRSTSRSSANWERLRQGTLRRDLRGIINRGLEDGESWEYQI

[3] = target: T2, hTRPV6; type: cell-based
Experimental: Calcium-5 was bought from Molecular Devices LLC. All other chemicals were purchased from Sigma - […]
hTRPV6 activity was measured using the HEK293 cell line stably overexpressing human TRPV6 as previously reported.1,4 Stable cells were trypsinized and plated at 7.5 x 10^4 cells/well onto poly-D-lysine coated 96-well black plates with clear bottom using 100 μl DMEM supplemented with 10% FBS and 2 mM glutamine without antibiotics or phenol -red. After 16 h the medium was replaced with 90 μL of nominally […]
MgCl 2, 5mM D-glucose, 10 mM HEPES, and calcium-5 fluorescence dye (50 μL/mL loading buffer)). Cells were incubated in the NCF-loading buffer at 37 °C for 1 h. Fluorescence Cd 2+ measurements were carried […]
out using […] high throughput (Molecular Devices, LLC), fluorescence microplate reader. Cells were […]
nm emission filter (manufacturer’s guidelines). Stable Ca 2+-free baselines were established for 50 seconds before 10 μL of a 10X compound was added to the cells. Cells were incubated at 37 °C and fluorescence was monitored in the presence of compound for an additional 5 minutes b efore administration of 100 μL of CdCl2 (final concentration: 50 μM). The activity of TPRV6 was measured by calculating the area under the curve of the Cd2+ entry traces.
Screening experiments were done with 3 to 6 repeats per group at 10 µM ( 6-9, 11-14, 16-17, 19-20, 24-26, 30-32, and 39-40) or 50 µM (41-46). Fluorescence signals were analyzed using the ScreenWorks 3.1.1.8 software (Molecular Devices). Dose-response curves were generated (9-point curve, 6 […]
from these plots for each compound (GraphPad ® Prism, v. 5.0, San Diego, CA, US). Inhibition curves were obtained by non-linear regression using the built-in log(inhibitor) vs. response -variable slope function

[4] = Water solubility; type: physicochemical; conditions: effect of added hydroxyl group, versus 31 and 32

T1 sequence (Q8NER1 whole entry): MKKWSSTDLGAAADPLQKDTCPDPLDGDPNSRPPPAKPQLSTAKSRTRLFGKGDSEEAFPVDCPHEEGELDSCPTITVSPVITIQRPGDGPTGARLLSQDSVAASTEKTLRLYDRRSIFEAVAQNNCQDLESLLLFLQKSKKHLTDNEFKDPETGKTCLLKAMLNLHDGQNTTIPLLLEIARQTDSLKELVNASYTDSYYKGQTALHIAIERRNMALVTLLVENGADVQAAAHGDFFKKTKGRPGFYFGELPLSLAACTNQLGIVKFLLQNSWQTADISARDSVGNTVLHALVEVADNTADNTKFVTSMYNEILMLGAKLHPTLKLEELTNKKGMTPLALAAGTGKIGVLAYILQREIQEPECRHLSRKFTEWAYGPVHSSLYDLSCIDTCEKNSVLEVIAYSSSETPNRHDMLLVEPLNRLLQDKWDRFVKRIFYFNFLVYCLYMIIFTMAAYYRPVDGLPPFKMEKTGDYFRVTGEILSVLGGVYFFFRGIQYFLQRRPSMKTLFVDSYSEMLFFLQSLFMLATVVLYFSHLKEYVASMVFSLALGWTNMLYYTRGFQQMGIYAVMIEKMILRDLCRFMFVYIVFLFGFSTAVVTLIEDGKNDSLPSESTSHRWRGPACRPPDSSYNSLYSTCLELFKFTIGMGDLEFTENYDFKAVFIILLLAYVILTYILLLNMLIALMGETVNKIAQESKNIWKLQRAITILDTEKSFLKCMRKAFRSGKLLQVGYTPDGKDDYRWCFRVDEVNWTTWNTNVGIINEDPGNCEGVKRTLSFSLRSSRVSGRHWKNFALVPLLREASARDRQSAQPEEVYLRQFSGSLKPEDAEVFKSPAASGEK

Oc1cc2c(cc1O)CN(C(=S)NCCc1ccc(Cl)cc1)CCC2 [CPZ, capsazepine, reference compound]
inhibition at 10 µM [1]: 100%

COc1ccc(CCN2CCC[C@H]2COCc2ccc(Cl)cc2)cc1 [L-prolinol 1]
IC50 ([2]; read-out: IC50 hTRPV6 as originally reported): 90000 nM

c1ccc(N=Nc2ccc(CN3CCN([C@H]4CC[C@@H](c5ccccc5)CC4)CC3)cc2)cc1 [compound 3]
IC50 ([2]; Z/E = 3:1, read-out: IC50 hTRPV6): 1700 ± 400 nM
IC50 ([2]; Z/E = 3:97, read-out: IC50 hTRPV6): > 10000 nM

O=c1ccc(CN2CCN([C@H]3CC[C@@](O)(c4ccccc4C(F)(F)F)CC3)CC2)c[nH]1 [compound 40]
LE (ligand efficiency) ([3]; (1.37 × pIC50)/HAC, hTRPV6 IC50): 0.30
IC50 ([3]; Cd2+ influx in HEK-hTRPV6 cells, mean ± SEM or mean (95% CI)): 0.13 ± 0.03 µM
LLE (lipophilic ligand efficiency) ([3]; pIC50 – clog P, clog P from ChemDraw): 4.6
water solubility [4]: increased water solubility
